# What was measured:
# [1] = target: human SAP binding to TNP-KLH coated polystyrene (Homo sapiens, UniProt P02743); assay: Inhibition of binding of human SAP to TNP-KLH coated polystyrene; conditions: for IC50 / concentration at 50% inhibition of human SAP binding to TNP-KLH coated polystyrene: 40 ng/ml human SAP, preincubated 2 hours at 20° C.; for IC50: read-out: concentration at 50% inhibition of human SAP binding to TNP-KLH coated polystyrene
# Procedure: The samples containing 40 ng/ml human SAP are preincubated with dilutions of the compound to be tested as an inhibitor for two hours at 20° C. The perent decrease in SAP binding to TNP-KLH is calculated in comparison to the SAP binding in the absence of any inhibitor.
# [2] = ELISA for SAP: binding of purified human SAP to plastic surface
# Procedure: The wells of flat-bottom polystyrene microtiter plates (Immulon®, Dynatech, Zug, Switzerland) or polyvinyl chloride microtiter plates (Microtest III™, Becton Dickinson, Oxnard, CA, USA) are incubated with either 100 μl 0.3M NaHCO3 alone, 100 μl KLH 2 μg/ml in 0.3M NaHCO3, or 100 μl TNP-KLH (Example 1) 2 μg/ml in 0.3M NaHCO3 for one hour or more at room temperature. […] The plates are washed with 5 mM CaCl2, then incubated with 100 μl each of human SAP containing samples (standard solutions or serum dilutions in ELISA buffer) for 2 hours at 20° C. […] The plates are washed with 5 mM CaCl2, incubated for 2 hours at 20° C. with 100 μl of rabbit antiserum to human SAP (Calbiochem) diluted 1:10^4 with ELISA buffer, washed again with 5 mM CaCl2, and incubated overnight in a water-saturated atmosphere at 20° C. with 100 μl of horseradish peroxidase conjugated donkey anti-rabbit Ig antiserum (Amersham Int., Amersham, UK) diluted 1:5000 with ELISA buffer. The plates are washed, then developed with 100 μl per well of buffered o-phenylenediamine (100 mg in 48.6 ml 0.1M citric acid and 51.4 ml 0.2M Na2 HPO4, pH 5.0) containing 0.03% H2 O2 in the dark at 20° C. for 15 minutes. The reaction is stopped by addition of 25 μl 2.5M H2 SO4 and the optical density of the colour developed by the enzyme reaction determined at 492 nm using a Titertek® multiscan spectrophotometer (Flow Laboratories). […]
# [3] = Retention of SAP on TNP-Sepharose column; type: binding, human; conditions: absence of Ca^2+ ions, TBS
# [4] = ELISA for SAA: binding of human SAA to polystyrene
# Sequence of human SAP binding to TNP-KLH coated polystyrene (P02743 20-223): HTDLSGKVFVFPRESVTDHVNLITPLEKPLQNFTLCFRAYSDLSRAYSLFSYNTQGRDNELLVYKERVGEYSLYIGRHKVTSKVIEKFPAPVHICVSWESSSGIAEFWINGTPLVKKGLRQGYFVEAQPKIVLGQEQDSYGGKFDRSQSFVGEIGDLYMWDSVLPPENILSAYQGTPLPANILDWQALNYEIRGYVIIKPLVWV
Molecule,"inhibition of SAP binding to TNP-KLH coated polystyrene, in words [1]",IC50 [1] [mM],further results
"O=C(O)CN(CCOCCOCCN(CC(=O)O)CC(=O)O)CC(=O)O [EGTA, 1,2-di(2-aminoethoxy)ethane-N,N,N',N'-tetraacetic acid]",inhibitors of SAP binding at concentrations equal or in excess of the Ca^2+ concentration,17 ± 2.2,–
Nc1ccc([As](=O)(O)O)cc1 [p-aminophenyl-arsonic acid],Inhibiting properties,27.3 ± 4.9,–
pectic acid,Inhibiting properties,–,concentration at 50% inhibition of human SAP binding to TNP-KLH coated polystyrene [1]: 0.2 ± 0.07 µg/mL
O=[N+]([O-])c1ccc([As](=O)(O)O)cc1 [p-nitrophenylarsonic acid],Inhibiting properties,4.2 ± 1.3,–
"O=[N+]([O-])c1cc([N+](=O)[O-])c2ccc(S(=O)(=O)O)cc2c1O [2,4-dinitro-1-naphthol-7-sulphonic acid]",Inhibiting properties,43.3 ± 5.8,–
"TNP-BSA: prepared from BSA and 2,4,6-trinitrobenzenesulfonic acid yielding a conjugate with 15 TNP residues per BSA molecule",compete efficiently for SAP,–,concentration at 50% inhibition of human SAP binding to TNP-KLH coated polystyrene [1]: 0.33 ± 0.06 µg/mL
"SAP: serum amyloid P-component, a 9.5S α1 glycoprotein of 235'000 Dalton molecular weight",–,–,SAP binding at reduced CaCl2 concentration ([2]; 0.06 mM or lower concentrations of CaCl2): no SAP is bound; SAP binding at reduced CaCl2 concentration ([2]; 0.12 mM CaCl2): sharp decrease of SAP binding; retention of SAP on TNP-Sepharose [3]: not retained
"O=C(O)CN(CCN(CC(=O)O)CC(=O)O)CC(=O)O [EDTA, ethylenediamine-N,N,N',N'-tetraacetic acid]",inhibitors of SAP binding at concentrations equal or in excess of the Ca^2+ concentration,5.35 ± 1.3,–
"SAA: α1 globulin consisting of a single polypeptide chain of molecular weight between 11'500 and 14'000 Dalton (protein, UniProt P0DJI8 19-122, looked up) Serum amyloid A-1 protein: RSFFSFLGEAFDGARDMWRAYSDMREANYIGSDKYFHARGNYDAAKRGPGGAWAAEVITDARENIQRFFGHGAEDSLADQAANEWGRSGKDPNHFRPAGLPEKY",–,–,"binding of human SAA to KLH-coated polystyrene and polystyrene alone, in words ([4]; KLH-coated polystyrene and polystyrene alone): Substantial binding; binding of human SAA to polystyrene coated with TNP-KLH, in words ([4]; TNP-KLH coated polystyrene): very efficiently; binding of human SAA when Ca^2+ is omitted, in words ([4]; TNP-KLH coated polystyrene, Ca^2+ omitted): without loss in binding efficiency"

# — US4782014A, “Assay and purification of amyloid components, applications, and kits therefor” (Ciba-Geigy Corporation, priority 1985, dated 1988)
